In patent publication US11013698B2, “Combinations of LSD1 inhibitors for the treatment of hematological malignancies” (Oryzon Genomics S.A., priority 2016, dated 2021):
pEC50: −log10 of the molar value. Where two headings read alike, the source gives them in different places.

Key:
Experiment in all cases: Viability assay (96 hours), Alamar Blue
Assay type in all cases: cell-based
OCI-AML2 = details: for pEC50: Homo sapiens, read-out: EC50 (viability); for Reduction of viability (compared to vehicle controls): serial 1:3 dilution
Procedure: (§1) AML cell lines were maintained in RPMI 10% FBS medium at 37° C. in a humidified incubator with controlled 5% CO2 atmosphere. Cell freezing and thawing was performed following recommendation from ATCC. Genetic profiling of the cell lines used is available in table 2. Cells were seeded at the optimal density (to guarantee linear growth during the treatment), as previously determined (4000 cells/well, except 16000 cells/well in the case of KASUMI-1 cells), in 96-well plates with 50 μL of medium. Three wells were reserved for each experimental condition; medium-only and vehicle-treated controls were also added for background correction and normalization respectively. […] Alamar Blue® is a cell viability indicator that uses the natural reducing power of living cells to convert resazurin to the fluorescent molecule, resorufin^43.

MOLM-13 = details: for pEC50: Homo sapiens, read-out: EC50 (viability); for Reduction of viability (compared to vehicle controls): serial 1:3 dilution
Procedure: as §1

KASUMI-1 = details: for pEC50: Homo sapiens, read-out: EC50 (viability); for Reduction of viability (compared to vehicle controls): serial 1:3 dilution
Procedure: as §1

HL-60 = details: for Reduction of viability (compared to vehicle controls): serial 1:3 dilution; for pEC50: Homo sapiens, read-out: EC50 (viability)
Procedure: as §1

MV(4;11) = details: for pEC50: Homo sapiens, read-out: EC50 (viability); for Reduction of viability (compared to vehicle controls): serial 1:3 dilution
Procedure: as §1

OCI-AML3 = details: for pEC50: Homo sapiens, read-out: EC50 (viability); for Reduction of viability (compared to vehicle controls): serial 1:3 dilution
Procedure: as §1

THP-1 = details: for pEC50: Homo sapiens, read-out: EC50 (viability); for Reduction of viability (compared to vehicle controls): serial 1:3 dilution
Procedure: as §1

[1] = OCI-AML2, 96 hours, single agent
[2] = MOLM-13, 96 hours, single agent
[3] = KASUMI-1, 96 hours, single agent
[4] = MV4-11, MV(4;11), 96 hours, single agent
[5] = OCI-AML-3, OCI-AML3, 96 hours, single agent

| SMILES | pEC50 (OCI-AML2; [1]) | Reduction of viability (compared to vehicle controls) (OCI-AML2; OCI-AML2, 96 hours) | pEC50 (MOLM-13; [2]) | Reduction of viability (compared to vehicle controls) (MOLM-13; MOLM-13, 96 hours) | pEC50 (KASUMI-1; [3]) | Reduction of viability (compared to vehicle controls) (KASUMI-1; KASUMI-1, 96 hours) | Reduction of viability (compared to vehicle controls) (HL-60; HL-60, 96 hours) | pEC50 (HL-60; HL-60, 96 hours, single agent) | pEC50 (MV(4;11); [4]) | Reduction of viability (compared to vehicle controls) (MV(4;11); MV(4;11), 96 hours) | pEC50 (OCI-AML3; [5]) | Reduction of viability (compared to vehicle controls) (OCI-AML3; OCI-AML3, 96 hours) | pEC50 (THP-1; THP-1, 96 hours, single agent) | Reduction of viability (compared to vehicle controls) (THP-1; THP-1, 96 hours) | other results |
| --- | --- | --- | --- | --- | --- | --- | --- | --- | --- | --- | --- | --- | --- | --- | --- |
| CN(C)CC[C@H](CSc1ccccc1)Nc1ccc(S(=O)(=O)NC(=O)c2ccc(N3CCN(Cc4ccccc4-c4ccc(Cl)cc4)CC3)cc2)cc1[N+](=O)[O-] [ABT737, 4-[4-[[2-(4-chlorophenyl)phenyl]methyl]piperazin-1-yl]-N-[4-[[(2R)-4-(dimethylamino)-1-phenylsulfanylbutan-2-yl]amino]-3-nitrophenyl]sulfonylbenzamide] | 7.85 | greater than 20% | 7.60 | greater than 20% | 6.91 | greater than 20% | greater than 20% | 6.95 | 8.20 | greater than 20% | – | – | – | – | – |
| COc1ccc(C2=N[C@@H](c3ccc(Cl)cc3)[C@@H](c3ccc(Cl)cc3)N2C(=O)N2CCNC(=O)C2)c(OC(C)C)c1 [Nutlin3A, 4-[[(4S,5R)-4,5-bis(4-chlorophenyl)-4,5-dihydro-2-[4-methoxy-2-(1-methylethoxy)phenyl]-1H-imidazol-1-yl]carbonyl]-2-piperazinone] | 6.35 | greater than 20% | 6.89 | greater than 20% | – | – | – | – | – | – | 6.18 | greater than 20% | 6.49 | greater than 20% | – |
| CC(C)N(CCCNC(=O)Nc1ccc(C(C)(C)C)cc1)C[C@H]1O[C@@H](n2ccc3c(N)ncnc32)[C@H](O)[C@@H]1O [EPZ004777, 7-[5-Deoxy-5-[[3-[[[[4-(1,1-dimethylethyl)phenyl]amino]carbonyl]amino]propyl](1-methylethyl)amino]-β-D-ribofuranosyl]-7H-pyrrolo[2,3-d]pyrimidin-4-amine] | – | – | 6.97 | greater than 20% | – | – | – | – | 6.93 | greater than 20% | – | – | – | – | – |
| Nc1ncn([C@@H]2O[C@H](CO)[C@@H](O)[C@H]2O)c(=O)n1 [Azacitidine] | 5.73 | greater than 20% | 6.49 | greater than 20% | 5.64 | greater than 20% | greater than 20% | 5.74 | 5.95 | greater than 20% | 6.05 | greater than 20% | 5.54 | greater than 20% | – |
| Nc1ccn([C@@H]2O[C@H](CO)[C@@H](O)[C@@H]2O)c(=O)n1 [ARA-C, arabinofuranosyl cytidine] | 7.58 | greater than 20% | 7.11 | greater than 20% | 7.54 | greater than 20% | greater than 20% | 7.36 | 6.70 | greater than 20% | 6.84 | greater than 20% | 6.60 | greater than 20% | – |
| CC(C)N(C[C@H]1O[C@@H](n2cnc3c(N)ncnc32)[C@H](O)[C@@H]1O)[C@H]1C[C@@H](CCc2nc3cc(C(C)(C)C)ccc3[nH]2)C1 [EPZ5676, Pinometostat] | – | – | 7.35 | greater than 20% | – | – | – | – | 7.80 | greater than 20% | – | – | – | – | – |
| CC1=C(/C=C/C(C)=C/C=C/C(C)=C/C(=O)O)C(C)(C)CCC1 [ATRA, all-trans retinoic acid] | 8.23 | greater than 20% | 8.32 | greater than 20% | – | – | greater than 20% | 8.57 | 8.55 | greater than 20% | 9.10 | greater than 20% | 8.77 | greater than 20% | – |
| O=C(CCCCCCC(=O)Nc1ccccc1)NO [SAHA, suberanilohydroxamic acid] | – | greater than 20% | – | greater than 20% | – | greater than 20% | greater than 20% | – | – | greater than 20% | – | greater than 20% | – | greater than 20% | – |
| Nc1ccccc1NC(=O)c1ccc(CNC(=O)OCc2cccnc2)cc1 [Entinostat] | 6.97 | greater than 20% | 7.28 | greater than 20% | 6.78 | greater than 20% | greater than 20% | 7.38 | 7.01 | greater than 20% | 7.26 | greater than 20% | 6.64 | greater than 20% | – |
| CC(C)(C)c1cc(NC(=O)Nc2ccc(-c3cn4c(n3)sc3cc(OCCN5CCOCC5)ccc34)cc2)no1 [Quizartinib] | 6.08 | greater than 20% | > 9.00 | greater than 20% | – | – | – | – | > 9.00 | greater than 20% | – | – | – | – | – |
| Nc1ncn([C@H]2C[C@H](O)[C@@H](CO)O2)c(=O)n1 [Decitabine, 5-aza-2′-deoxycytidine] | – | greater than 20% | – | greater than 20% | – | greater than 20% | greater than 20% | – | – | greater than 20% | – | greater than 20% | – | greater than 20% | pEC50 (OCI-AML3; OCI-AML-3, 96 h): 7.00; pEC50 (OCI-AML2; OCI-AML2, 96 h): 7.44; pEC50 (THP-1; THP-1, 96 h): 7.02; pEC50 (MOLM-13; MOLM-13, 96 h): 7.90; pEC50 (KASUMI-1; Kasumi 1, 96 h): 7.62; pEC50 (HL-60; HL-60, 96 h): 7.38; pEC50 (MV(4;11); MV4-11, 96 h): 7.10 |
